The nature of data set [1]: Variable-temperature XRPD (solid form on heating). Type of data set: physicochemical. On the procedure:
In addition to XRPD, quinine sulfate polymorph A is analyzed by DSC, TGA, moisture balance (MB), post-MB XRPD, hotstage microscopy (HSM), Karl Fischer (KF) and variable temperature X-ray powder diffraction (VT-XRPD); a summary of the analyses is provided in Table 11b. Variable-temperature XRPD is performed on a Shimadzu XRD-6000 X-ray powder diffractometer equipped with an Anton Paar HTK 1200 high temperature stage. The sample is packed in a ceramic holder and analyzed from 2.5 to 40 °2θ at 3°/min (0.4 sec/0.02° step). A silicon standard is analyzed to check the instrument alignment. Temperature calibration is performed using vanillin and sulfapyridine standards. Data are collected and analyzed using XRD-6000 v. 4.1.

Data set [2] in a line: Moisture balance (moisture sorption/desorption, 5% to 95% RH) with post-MB XRPD. Type of data set: physicochemical. How it is done:
In addition to XRPD, quinine sulfate polymorph A is analyzed by DSC, TGA, moisture balance (MB), post-MB XRPD, hotstage microscopy (HSM), Karl Fischer (KF) and variable temperature X-ray powder diffraction (VT-XRPD); a summary of the analyses is provided in Table 11b. Moisture sorption/desorption data are collected on a VTI SGA-100 Vapor Sorption Analyzer. Sorption and desorption data are collected over a range of 5% to 95% relative humidity (RH) at 10% RH intervals. Samples are not dried prior to analysis. Equilibrium criteria used for analysis are less than 0.0100% weight change in 5 minutes, with a maximum equilibration time of 3 hours if the weight criterion is not met. Data are not corrected for the initial moisture content of the samples. Sodium chloride and polyvinylpyrrolidone are used as calibration standards.

The values that follow come from patent US20090163540A1, “Quinine Sulfate Polymorphs, Processes of Preparing, Compositions and Uses Thereof” (priority 2007, published 2009).

Each structure is given as a SMILES string. Where a name gives a salt, the structure may show the parent alone.

For `C=C[C@H]1C[N@@]2CC[C@H]1C[C@H]2[C@H](O)c1ccnc2ccc(OC)cc12` [Form A, quinine sulfate], the VT-XRPD form is listed as 40° C.: Form A in data set [1] (40° C. (listed after 110° C.)); 50° C.: Form A in data set [1] (50° C.); 75° C.: Form A in data set [1] (75° C.); 110° C.: Pattern D in data set [1] (110° C.); “ambient temp: Form A” in data set [1] (ambient temp). Moreover, the “post-MB XRPD form” value in data set [2] (solid form after moisture balance) was “Form A”. The “MB (moisture balance) result” value in data set [2] (sorption/desorption 5% to 95% RH at 10% RH intervals) is reported as “non-hygroscopic”.
